This test deals with L1210 leukemia ip in BDF1 mice, survival T/C. Put plainly: NCI In Vivo Anticancer Drug Screen. Data for tumor model L1210 Leukemia (intraperitoneal) in B6D2F1 (BDF1) mice. To be noted: endpoint: mean survival time, higher = longer survival. A digest of the protocol:
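In this screen, tumor-bearing mice given compound are compared to those given vehicle, and their survival values are reported as a treated-to-control quotient.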

Where [1] appears, read: dose: 100.0 mg/kg/injection, schedule: Q04DX002 (ip), vehicle: Klucel (hydroxypropylcellulose) (HPC).
Where [2] appears, read: dose: 200.0 mg/kg/injection, schedule: Q04DX002 (ip), vehicle: Klucel (hydroxypropylcellulose) (HPC).
Setting [3] is: dose: 100.0 mg/kg/injection, schedule: Q04DX003 (ip), vehicle: Klucel (hydroxypropylcellulose) (HPC).
Setting [4] is: dose: 200.0 mg/kg/injection, schedule: Q04DX003 (ip), vehicle: Klucel (hydroxypropylcellulose) (HPC).
Setting [5] is: dose: 400.0 mg/kg/injection, schedule: Q04DX003 (ip), vehicle: Klucel (hydroxypropylcellulose) (HPC).
Where [6] appears, read: dose: 100.0 mg/kg/injection, schedule: Q01DX001 (ip), vehicle: saline.
The mark [7] stands for this setting: dose: 200.0 mg/kg/injection, schedule: Q01DX001 (ip), vehicle: saline.

The structures appear in SMILES notation. Inconclusive results and toxic doses are left out. Square brackets hold non-standard residues; d marks the D form. Peptide text beside a SMILES is read from it. ξ: configuration not given here. Ac5c = NC1(C(=O)O)CCCC1; ξS = NC(CO)C(=O)O

This is an account of results in PubChem BioAssay AID248 (DTP/NCI, 2004).

On to `COc1cc(C[C@H]2c3cc(OC)c(OC)cc3CCN2C)c(Oc2cc3c(cc2OC)-c2c(OC)c(OC)cc4c2[C@H](C3)N(C)CC4)cc1OC`, for which the T/C is 110 % of control (dose: 12.0 mg/kg/injection, schedule: Q01DX005 (ip), vehicle: other); 97 % of control (dose: 12.0 mg/kg/injection, schedule: Q01DX009 (ip), vehicle: other); 107 % of control (dose: 18.0 mg/kg/injection, schedule: Q04DX003 (ip), vehicle: other); 106 % of control (dose: 24.0 mg/kg/injection, schedule: Q01DX005 (ip), vehicle: other); 105 % of control (dose: 24.0 mg/kg/injection, schedule: Q01DX009 (ip), vehicle: other); 103 % of control (dose: 25.0 mg/kg/injection, schedule: Q01DX009 (ip), vehicle: clinical formulation). Further, the T/C was 103 % of control (dose: 27.0 mg/kg/injection, schedule: Q08DX002 (ip), vehicle: other); 103 % of control (dose: 36.0 mg/kg/injection, schedule: Q04DX003 (ip), vehicle: other); 110 % of control (dose: 48.0 mg/kg/injection, schedule: Q01DX005 (ip), vehicle: other); 108 % of control (dose: 48.0 mg/kg/injection, schedule: Q01DX009 (ip), vehicle: other); 100 % of control (dose: 50.0 mg/kg/injection, schedule: Q01DX009 (ip), vehicle: clinical formulation); 106 % of control (dose: 54.0 mg/kg/injection, schedule: Q08DX002 (ip), vehicle: other). In addition, the T/C by setting is: (dose: 72.0 mg/kg/injection, schedule: Q04DX003 (ip), vehicle: other) 108 % of control; (dose: 80.0 mg/kg/injection, schedule: Q01DX015 (ip), vehicle: carboxymethylcellulose (CMC)) 88 % of control; (dose: 96.0 mg/kg/injection, schedule: Q01DX005 (ip), vehicle: other) 108 % of control; (dose: 96.0 mg/kg/injection, schedule: Q01DX009 (ip), vehicle: other) 105 % of control; (dose: 100.0 mg/kg/injection, schedule: Q01DX009 (ip), vehicle: clinical formulation) 102 % of control; under setting [1], 104 % of control. For the same molecule, the T/C by setting is: (dose: 108.0 mg/kg/injection, schedule: Q08DX002 (ip), vehicle: other) 102 % of control; (dose: 144.0 mg/kg/injection, schedule: Q04DX003 (ip), vehicle: other) 103 % of control; (dose: 160.0 mg/kg/injection, schedule: Q01DX015 (ip), vehicle: carboxymethylcellulose (CMC)) 93 % of control; (dose: 192.0 mg/kg/injection, schedule: Q01DX005 (ip), vehicle: other) 105 % of control; (dose: 192.0 mg/kg/injection, schedule: Q01DX009 (ip), vehicle: other) 101 % of control; under setting [2], 86 % of control. Besides, the T/C by setting is: (dose: 216.0 mg/kg/injection, schedule: Q08DX002 (ip), vehicle: other) 95 % of control; (dose: 288.0 mg/kg/injection, schedule: Q04DX003 (ip), vehicle: other) 97 % of control; (dose: 400.0 mg/kg/injection, schedule: Q04DX002 (ip), vehicle: Klucel (hydroxypropylcellulose) (HPC)) 101 % of control.
For `COC(=O)C1=C(C)NC(=S)NC1c1ccc(N(CCCl)CCCl)cc1Cl` (stereo not drawn), the T/C under setting [3] was 95 % of control, the T/C under setting [4] is 95 % of control and the T/C under setting [5] is 101 % of control.
Turning to `NC(N)=NCCCS(=O)(=O)Nc1ccc(Nc2c3ccccc3nc3cc([N+](=O)[O-])ccc23)cc1`, the T/C by setting is: (dose: 3.0 mg/kg/injection, schedule: Q01DX009 (ip), vehicle: water) 186 % of control; (dose: 6.0 mg/kg/injection, schedule: Q01DX009 (ip), vehicle: water) 160 % of control; (dose: 6.25 mg/kg/injection, schedule: Q04DX002 (ip), vehicle: saline with Tween-80) 102 % of control; (dose: 6.25 mg/kg/injection, schedule: Q04DX003 (ip), vehicle: water) 186 % of control; (dose: 12.5 mg/kg/injection, schedule: Q04DX002 (ip), vehicle: saline with Tween-80) 120 % of control; (dose: 25.0 mg/kg/injection, schedule: Q04DX002 (ip), vehicle: saline with Tween-80) 124 % of control. The T/C by setting is: (dose: 50.0 mg/kg/injection, schedule: Q04DX003 (ip), vehicle: water) 161 % of control; (dose: 100.0 mg/kg/injection, schedule: Q04DX002 (ip), vehicle: saline with Tween-80) 150 % of control; (dose: 200.0 mg/kg/injection, schedule: Q04DX002 (ip), vehicle: saline with Tween-80) 183 % of control.
Take `CCOC(=O)Nc1ccccc1`: the T/C reads like this: (dose: 100.0 mg/kg/injection, schedule: Q01DX009 (ip), vehicle: Klucel (hydroxypropylcellulose) (HPC)) 97 % of control; under setting [3], 93 % of control; (dose: 200.0 mg/kg/injection, schedule: Q01DX009 (ip), vehicle: Klucel (hydroxypropylcellulose) (HPC)) 103 % of control; under setting [4], 93 % of control; (dose: 400.0 mg/kg/injection, schedule: Q01DX009 (ip), vehicle: Klucel (hydroxypropylcellulose) (HPC)) 103 % of control; under setting [5], 88 % of control.
Take `NCCSc1ccc(Br)cc1`: the T/C by setting is: (dose: 75.0 mg/kg/injection, schedule: Q01DX001 (ip), vehicle: other) 100 % of control; (dose: 150.0 mg/kg/injection, schedule: Q01DX001 (ip), vehicle: other) 102 % of control.
Consider `O=[N+]([O-])c1ccc(C2=NCCO2)cc1`, for which the T/C is 104 % of control (dose: 100.0 mg/kg/injection, schedule: Q04DX002 (ip), vehicle: saline); 114 % of control (dose: 200.0 mg/kg/injection, schedule: Q04DX002 (ip), vehicle: saline); 104 % of control (dose: 400.0 mg/kg/injection, schedule: Q04DX002 (ip), vehicle: saline).
`NC(CO)C(=O)NC1(C(=O)O)CCCC1` (stereo not drawn) (H-[ξS]-[Ac5c]-OH): the T/C was 100 % of control under setting [6]; 107 % of control under setting [7]; 107 % of control (dose: 400.0 mg/kg/injection, schedule: Q01DX001 (ip), vehicle: saline).
With `O=C(NC1CCCCC1)O/N=C/c1ccccn1`, the T/C is, setting by setting: (dose: 100.0 mg/kg/injection, schedule: Q04DX003 (ip), vehicle: other) 94 % of control; (dose: 200.0 mg/kg/injection, schedule: Q04DX003 (ip), vehicle: other) 109 % of control; (dose: 400.0 mg/kg/injection, schedule: Q04DX003 (ip), vehicle: other) 94 % of control.
For the molecule `O=C(CCCN1CCC(O)CC1)c1ccc(N2CC=C(c3ccccc3)CC2)cc1`, the T/C reads like this: under setting [1], 104 % of control; under setting [2], 100 % of control.
As to `C/C(=N\N=C(N)N)c1ccc(N2CCN(c3ccc(/C(C)=N/N=C(N)N)cc3)CC2)cc1`, the T/C runs as follows: (dose: 100.0 mg/kg/injection, schedule: Q01DX001 (ip), vehicle: carboxymethylcellulose (CMC)) 94 % of control; (dose: 200.0 mg/kg/injection, schedule: Q01DX001 (ip), vehicle: carboxymethylcellulose (CMC)) 97 % of control; (dose: 400.0 mg/kg/injection, schedule: Q01DX001 (ip), vehicle: carboxymethylcellulose (CMC)) 100 % of control.
In the case of `O=C1NCC2(CCCCCC2)O1`, the T/C under setting [6] was 104 % of control and the T/C under setting [7] was 108 % of control.
